Where no end group is shown, it is not given here.
Assays:
[1] = system: P. aeroginosa (ATCC 27853); type: cell-based, P. aeruginosa; settings: ATCC 27853, 24 h
Experimental: (§1) Minimum inhibitory concentrations (MIC) were determined by broth microdilution on P. aeruginosa ATCC 27853, E. coli K12, S. aureus ATCC 25723, M. luteus NCIMB 13267 and B. subtilis ATCC 6633 according to the Clinical and Laboratory Standards Institute. Typically, 100 μl of 0.5-1×10^6 CFU per ml of each bacterium in Mueller Hinton broth was incubated in 96 well plates with […] of serial two-fold dilutions of the peptides (final concentrations, 100-0 mM) at 37° C. (or 30° C. for B. subtilis and M. luteus) on a 3D orbital shaker. The absorbance was measured after peptide addition at 600 nm using a Victor 2 plate reader (Perkin Elmer). Minimum inhibitory concentrations (MICs) were defined as the lowest peptide concentration showing growth inhibition after 24 hours at 37° C. All tests were done in triplicate.

S. aureus (ATCC 6538) = type: cell-based; settings: ATCC 6538, 24 h
B. subtilis (ATCC 6633) = type: cell-based; settings: ATCC 6633, 24 h
Experimental: as §1

E. coli (K12) = type: cell-based; settings: K12, 24 h
Experimental: as §1

M. luteus = type: cell-based; settings: 24 h
Experimental: as §1

[2] = Haemolysis of human erythrocytes; type: cell-based; settings: 10% (v/v) suspension, pH 7.2; 50% lysis of human erythrocytes, 1 hour, room temperature; read-out: LC50
Experimental: (§2) Haemolysis was determined by incubating 10% (v/v) suspension of human erythrocytes with peptides. Erythrocytes were rinsed 4 times in 10 mM PBS, pH 7.2, by repeated centrifugation and re-suspension (3 min, 3000×g). Erythrocytes were incubated at room temperature for 1 hour in either deionised water (fully haemolysed control), PBS or with peptide in PBS. After centrifugation at 10 000 g for 5 min, the supernatant was separated from the pellet and the absorbance measured at 550 nm. Absorbance of the suspension treated with deionised water defined complete haemolysis. The values given in Table 2 correspond to concentrations needed to kill a half of the sample population (50% lysis of human erythrocytes) and are expressed as median lethal concentrations—LC50. All tests were done in triplicate.

Human erythrocytes = experiment: Haemolysis of human erythrocytes; type: cell-based; settings: in words
Experimental: as §2

Human dermal fibroblasts [3] = experiment: Cell adhesion, proliferation and viability on coated substrates (PrestoBlue, Vybrant MTT, CyQUANT); type: cell-based; settings: serum-free media, days 1, 4 and 8, 50 μL peptide 100 μM or protein 500 μg/mL
Experimental: Human dermal fibroblasts (Invitrogen, UK) were maintained in Medium 106 supplemented with low serum growth supplement (2% v/v) and antibiotics (10 μg/mL gentamicin; 0.25 μg/mL amphotericin B) in […] culture flasks. The cells were incubated at 37° C., 5% CO2 and 95% air humidity. At 70-80% confluency cells were washed with PBS to remove the unattached cells and then adhered cells were trypsinised (trypsin/EDTA 0.025:0.01%) followed by trypsin neutraliser (all from Invitrogen, UK). The harvested cells (of passages 3 to 5) were seeded for subsequent cellular analysis.
Cells were seeded at a density of 4×10^3 in serum-free media for cell viability and proliferation assays on substrates (sterile 96 well plates) coated with 50 μL of peptide (100 μM) or protein (500 μg/mL). For cytoskeletal visualisation Nunc LabTek chambered cover glass slides were used as substrates.
Cell proliferation rates and viability were determined by PrestoBlue®, Vybrant® MTT and CyQUANT® assays on day 1, 4 and 8 (all from Life Technologies, UK).
PrestoBlue® reagent is supplied as a 10× solution and added to each well by diluting (1×) in the serum-free culture medium. The cells were incubated for 30 minutes at 37° C. in 200 μL of the reagent. The fluorescence of each well was measured with a microplate reader (BMG Labtech, Germany), with 544 nm excitation and 590 nm emission filters. Standard calibration curves were generated by plotting measured fluorescence values versus cell numbers. […]
Vybrant® MTT assay: For the colourimetric 3-(4, 5-dimethylthiazole-2-yl)-2, 5-diphenyl tetrazolium bromide (MTT) cell proliferation assay, the cell medium was removed from each well at the set time points and washed with PBS followed by the addition of MTT solution (10 μL, 5 mg/mL in PBS) and serum-free fresh media (100 μL). […] The absorbance intensity was measured by a microplate reader at 540 nm with a reference wavelength at 640 nm. Standard calibration curves were generated by plotting measured absorbance values versus cell numbers. […]

Human dermal fibroblasts [4] = experiment: Impedance measurements (xCELLigence) of cells on coated electrodes; type: cell-based; settings: serum-depleted medium
Experimental: Comparative impedance measurements using cell-electrode interfaces, which allow evaluating changes in effective impedance (resistance) to applied alternating current, provided further support for different cell proliferation patterns that were measured continuously in real time. Typically, cell attachments to electrode surfaces give impedance increases, whereas changes in cell morphology (cell rounding-up and detachment) cause impedance drops. Resistance traces that can correspond to different events including changes in cellular morphology, patterning and growth rates were recorded as a function of time, with cells seeded in a serum-depleted medium to avoid interferences by serum, which can modulate same signaling pathways for cell adhesion.
Impedance measurements were performed using an xCELLigence system according to the manufacturer's protocols (Roche, UK; ACEA Biosciences, USA). Each electrode array comprises 16 wells, each of which was first coated with assembled SaNet and protein solutions and background measurements were carried out prior to cell seeding. […] The electrical impedance of each well was automatically recorded every 5 min for the first 24 hours and then every 30 min till the end, and were normalised and expressed using the proprietary software as normalised cell index. Bacterial adhesions were measured every 5 min for over 15 hours. […]

E. coli = experiment: Bacterial adhesion / biofilm formation on coated substrates (Live/Dead stain, PrestoBlue); type: cell-based; settings: 16-hour incubations; E. coli and B. subtilis (FIGS. 12b, 13b, 13c, 14)
Experimental: Bacterial inocula (E. coli and B. subtilis) were prepared in Mueller Hinton broth at A600 of 0.6, then diluted to 1:100 in the pre-warmed medium, and 50 μL of this dilution was added to each well of the coated Nunc LabTek chambered cover glass slides. Formed biofilms were analysed after 16-hour incubations using a Live/Dead BacLight bacterial viability stain kit (Molecular Probes, UK), and were visualised by a confocal laser scanning microscope (CLSM) (FV-1000, Olympus). Bacterial viability was quantitatively probed by using PrestoBlue® reagent, as used for the cell viability and proliferation assay. E. coli was seeded at the same density as above in sterile bare and coated 96-well plates. After 16 hours incubation at 37° C. (or 30° C. for B. subtilis), the biofilm formed on each substrate was carefully washed with 10 mM Tris-HCl buffer, pH 7, to remove bacteria remaining in suspension. Two hundred microliters of PrestoBlue® reagent diluted in Mueller Hinton broth were added to each well and incubated for 30 minutes at 37° C. The fluorescence of each well was measured using a microplate reader with 544 nm excitation and 590 nm emission filters.
FIG. 13b and FIG. 13c are fluorescence micrographs and total viable cell counts respectively determined by PrestoBlue® of E. coli after 16-hour incubations on different substrates. […]

cyclo(AALEGGGEIAALEQEIAALEYKIAALKGGGKIAALKQKIAALKQEI) [SaNet]
MIC [1]: >100 µM | MIC (S. aureus (ATCC 6538)): >100 µM | MIC (B. subtilis (ATCC 6633)): 50 µM | MIC (E. coli (K12)): 100 µM | MIC (M. luteus): <50 µM | CC50 at 1 hour [2]: > 600 µM | haemolytic activity (Human erythrocytes): negligible

collagen
cell adhesion and proliferation (total cells / total viable cells) (Human dermal fibroblasts [3]): comparable values | normalised impedance after second medium inoculation (Human dermal fibroblasts [4]): a gradually ascending phase in impedance | resistance against bacterial adhesion / biofilm formation (E. coli): did not resist biofilm formation

KIAALKQKIAALKYEIAALE-am (KIAALKQKIAALKYEIAALE-NH2) [D2, individual linear second domain, negative non-assembling peptide control]
cell adhesion and proliferation (total cells / total viable cells) (Human dermal fibroblasts [3]): only negligible cellular responses

fibronectin
cell adhesion and proliferation (total cells / total viable cells) (Human dermal fibroblasts [3]): comparable values | normalised impedance after second medium inoculation (Human dermal fibroblasts [4]): steady decays in resistance curves | resistance against bacterial adhesion / biofilm formation (E. coli): did not resist biofilm formation

From patent US10265403B2, “Cyclic peptide” (priority 2013, dated 2019)
